Measured values published in PMC8419995, “In vitro and in vivo efficacy of thiacloprid against Echinococcus multilocularis” (Parasites & Vectors, 2021).
Like-named read-outs stand apart in the source and are kept apart here.

How the values were obtained:
[1] = tested on: Reuber rat hepatoma (RH) cells; assay: alamarBlue cytotoxicity assay, RH cells; assay type: cell-based; details: 120 h, 5 days
Experimental: An alamarBlue assay was used to assess the toxicity of thiacloprid to confluent and pre-confluent mammalian cells in vitro [29]. Human foreskin fibroblasts (HFF, Procell) and rat hepatoma cells (RH, Procell) were seeded into 96-well cell culture plates in DMEM supplemented with 10% FBS and 1% penicillin–streptomycin at 37 °C and 5% CO2. For detecting the growth inhibitory effects of confluent cells, HFF and RH cells were seeded at 10,000 cells per well and 50,000 cells per well, respectively. After overnight culture, thiacloprid or PZQ was added and diluted in serial concentrations (0, 0.6, 1.2, 2.5, 5, 10, 20, 40, 80 and 160 μM). For detecting growth inhibitory effects on proliferating cells, cells were seeded at 1000 (HFF) and 5000 (RH) cells per well. Thiacloprid was added after 5 h of cell attachment. To measure the viability of the cells after treatment for 5 days, the alamarBlue assay was employed and viability calculated as described previously.

[2] = tested on: E. multilocularis germinal cells; assay: CellTiter-Glo viability assay on germinal cells; assay type: cell-based, Echinococcus multilocularis; details: 5 days
Experimental: To evaluate the activity of thiacloprid against parasitic stem cells, germinal cells from in vitro metacestode vesicles were investigated as described by Spiliotis et al.. Briefly, 20 units of cells were distributed into a black 384-well plate. Different concentrations of thiacloprid or PZQ (0, 0.06, 1.2, 2.5, 5, 10, 20, 40, 80 and 160 μM) were added to the cells. After culture at 37 °C for 5 days under a humid nitrogen atmosphere, 25 μl CellTiter-Glo containing 1% Triton X-100 was added. The plates were incubated at room temperature in the dark for 15 min. After the total destruction of the cellular aggregates, luminescence was measured using an Infinite M200 PRO reader (Tecan), and 0 μM values were set to 100% viability. The IC50 values were calculated using an online IC50 calculator after logit-log transformation. Four independent replicates were conducted.

acetylcholinesterase = assay: Acetylcholinesterase activity (Ellman) in extracts of protoscoleces, metacestodes and germinal cells; assay type: biochemical, Echinococcus multilocularis; details: extract; thiacloprid 5 μM, 37 °C 10 min; BW284c51 positive control
Experimental: The effects of thiacloprid on the acetylcholinesterase activity of E. multilocularis protoscoleces, metacestodes and germinal cells were determined according to a previously described method. The protoscoleces, metacestode and germinal cells were washed twice with PBS and homogenized with an electric homogenizer in precooled PBS. Centrifugation of the homogenates was performed at 100,000×g for 30 min. The protein concentration of the supernatant was determined by the modified Lowry method according to the instructions, and the concentration was adjusted to 2 mg/ml. Thiacloprid (5 μM) was added to the extract and incubated at 37 °C for 10 min. The extract was supplemented with 0.1% DMSO as control. Subsequently, acetylcholinesterase activity was assessed according to Ellman’s procedure using a microplate with 260 µl of 0.1 M PBS buffer pH 8.0, 10 µl of 10 mM dithiobisnitrobenzoic acid solution, 2.5 µl of 75 mM substrate (acetylthiocholine iodide) and 25 µl of the sample treated with thiacloprid. The OD increment was measured at 412 nm using an Infinite M200 PRO reader (Tecan). Each experiment was conducted three times. BW284c51 (CAS number: 402-40-4, Sigma) was used as a positive control.

[3] = Toxicity of thiacloprid in vivo (serum biochemistry, blood cells, histopathology); details: normal BALB/c mice, 6 weeks; for Alanine aminotransferase / Albumin / Alkaline phosphatase / Aspartate aminotransferase / Blood urea nitrogen / Creatinine / Direct bilirubin / Globulin / Indirect bilirubin / Total bilirubin / Total protein: serum; for Hemoglobin / PLT / RBC / WBC: whole blood
Experimental: Based on the previous thiacloprid dose concentration, we selected 15 mg/kg and 30 mg/kg thiacloprid concentrations to evaluate the toxicity in vivo [35]. The toxicity of thiacloprid was assessed in normal BALB/c mice. Normal mice were randomly divided into three groups and received the following treatments (6 animals per group): The control group was not administered any drug; the Thia15 group and Thia30 group received thiacloprid orally (15 mg/kg/day and 30 mg/kg/day). After 6 weeks of treatment, blood samples were collected from the orbital sinus of mice under anesthesia before euthanasia, which were preserved in EDTA-K2 anticoagulant tubes for white blood cell (WBC), hemoglobin (Hb) and platelet (PLT) analysis. For assessing biochemical indicators, blood samples were incubated in anticoagulant-free tubes at 37 °C for 1 h, followed by 3500 rpm centrifugation for 10 min. The isolated serum samples were used to detect relative levels of alanine aminotransferase (ALT), aspartate aminotransferase (AST), total bilirubin (TBIL), direct bilirubin (DBIL), indirect bilirubin (IBIL), total protein (TP), albumin (ALB), alkaline phosphatase (ALP), creatinine (CREA) and blood urea nitrogen (BUN). Subsequently, mice were sacrificed for harvesting the liver and kidneys, which were fixed in 4% paraformaldehyde, prepared for hematoxylin–eosin (HE) staining and observed under a Zeiss Vert.A1 microscope.
Tissues from experimental animals were washed in PBS and fixed in 4% paraformaldehyde at room temperature for […]. On the next day, they were dehydrated, embedded, and sliced into 5-μm sections. After dewaxing and dehydrating, sections were stained with hematoxylin for 2–5 min, and re-stained with eosin for 15 s. They were sealed with neutral gum and observed under a BX51 microscope (Olympus, Tokyo, Japan).

Work on `N#C/N=C1\SCCN1Cc1ccc(Cl)nc1` [thiacloprid] yielded an IC50 ([1]; confluent cells, read-out: IC50 on confluent RH cells) of 91.4 ± 1.33 µM, an IC50 ([1]; pre-confluent cells, read-out: IC50 on pre-confluent RH cells) of 74.3 ± 10.8 µM and a viability at 2.5 µM ([2]; Echinococcus multilocularis, 120 h, 2.5 μM, read-out: Cell viability rate of germinal cells) of 58.3 ± 6.09%. The viability at 5 µM ([2]; Echinococcus multilocularis, 120 h, 5 μM, read-out: Cell viability rate of germinal cells) was 38.3 ± 4.47%, the IC50 ([2]; Echinococcus multilocularis, 120 h, CellTiter-Glo, read-out: IC50 against germinal cells) was 2.89 ± 0.34 µM and the “Inhibition rate of germinal cell viability” value ([2]; more than 10 μM) was “more than 80%”. The “Acetylcholinesterase activity in protoscoleces, metacestode vesicles and germinal cells” value (acetylcholinesterase) was “suppressed”, the Alanine aminotransferase ([3]; 15 mg/kg/day orally) was 66.00 ± 5.33 U/L and the Albumin ([3]; 15 mg/kg/day orally) was 28.95 ± 2.35 g/L. It also gave an Alkaline phosphatase ([3]; 15 mg/kg/day orally) of 57.67 ± 5.43 U/L, an Aspartate aminotransferase ([3]; 15 mg/kg/day orally) of 164.70 ± 36.71 U/L and a Blood urea nitrogen ([3]; 15 mg/kg/day orally) of 7.23 ± 1.87 mmol/L. The Creatinine ([3]; 15 mg/kg/day orally) was 16.08 ± 1.87 μM/L, the Direct bilirubin ([3]; 15 mg/kg/day orally) was 0.13 ± 0.05 μM/L and the Globulin ([3]; 15 mg/kg/day orally) was 36.67 ± 4.71 g/L. It also gave an Indirect bilirubin ([3]; 15 mg/kg/day orally) of 0.44 ± 0.17 μM/L, a Total bilirubin ([3]; 15 mg/kg/day orally) of 0.60 ± 0.10 μM/L and a Total protein ([3]; 15 mg/kg/day orally) of 65.90 ± 4.76 g/L. For the same molecule, the Hemoglobin ([3]; 15 mg/kg/day orally) was 203.00 ± 11.15 g/L, the PLT ([3]; 15 mg/kg/day orally) was 613.70 ± 145.00 10^9/L and the RBC ([3]; 15 mg/kg/day orally) was 11.39 ± 1.48 10^12/L. The WBC ([3]; 15 mg/kg/day orally) was 11.69 ± 1.30 10^9/L, the Alanine aminotransferase ([3]; 30 mg/kg/day orally) was 67.50 ± 5.01 U/L and the Albumin ([3]; 30 mg/kg/day orally) was 29.72 ± 1.49 g/L. For the same molecule, the Alkaline phosphatase ([3]; 30 mg/kg/day orally) was 58.50 ± 7.82 U/L, the Aspartate aminotransferase ([3]; 30 mg/kg/day orally) was 180.50 ± 45.71 U/L and the Blood urea nitrogen ([3]; 30 mg/kg/day orally) was 7.15 ± 0.47 mmol/L. For the same molecule, the Creatinine ([3]; 30 mg/kg/day orally) was 15.18 ± 2.44 μM/L, the Direct bilirubin ([3]; 30 mg/kg/day orally) was 0.19 ± 0.16 μM/L and the Globulin ([3]; 30 mg/kg/day orally) was 37.77 ± 4.81 g/L. It also gave an Indirect bilirubin ([3]; 30 mg/kg/day orally) of 0.42 ± 0.19 μM/L, a Total bilirubin ([3]; 30 mg/kg/day orally) of 0.59 ± 0.16 μM/L and a Total protein ([3]; 30 mg/kg/day orally) of 65.82 ± 4.39 g/L. The Hemoglobin ([3]; 30 mg/kg/day orally) was 206.0 ± 9.93 g/L, the PLT ([3]; 30 mg/kg/day orally) was 670.80 ± 150.20 10^9/L and the RBC ([3]; 30 mg/kg/day orally) was 9.58 ± 0.82 10^12/L. The WBC ([3]; 30 mg/kg/day orally) was 12.72 ± 1.75 10^9/L and the “Histopathological examination of liver and kidneys (HE staining)” value ([3]; 15 and 30 mg/kg/day orally) was “did not show obvious histopathological changes or injury”.
